In patent US20250230165A1, “HETEROCYCLIC COMPOUNDS FOR USE IN THE TREATMENT OF CANCER” (ARTIOS PHARMA LIMITED, priority 2021, published 2025) one finds Kinact/Kl data, which are given here for 14 compounds.

This assay has as its target T1, Human Polθ polymerase domain (aa1820-2590) (Homo sapiens, UniProt O75417).
T1 construct: Human Polθ polymerase domain (aa1820-2590) was expressed in E. coli; made in house; host or cells: E. coli
T1 sequence (O75417 1820-2590): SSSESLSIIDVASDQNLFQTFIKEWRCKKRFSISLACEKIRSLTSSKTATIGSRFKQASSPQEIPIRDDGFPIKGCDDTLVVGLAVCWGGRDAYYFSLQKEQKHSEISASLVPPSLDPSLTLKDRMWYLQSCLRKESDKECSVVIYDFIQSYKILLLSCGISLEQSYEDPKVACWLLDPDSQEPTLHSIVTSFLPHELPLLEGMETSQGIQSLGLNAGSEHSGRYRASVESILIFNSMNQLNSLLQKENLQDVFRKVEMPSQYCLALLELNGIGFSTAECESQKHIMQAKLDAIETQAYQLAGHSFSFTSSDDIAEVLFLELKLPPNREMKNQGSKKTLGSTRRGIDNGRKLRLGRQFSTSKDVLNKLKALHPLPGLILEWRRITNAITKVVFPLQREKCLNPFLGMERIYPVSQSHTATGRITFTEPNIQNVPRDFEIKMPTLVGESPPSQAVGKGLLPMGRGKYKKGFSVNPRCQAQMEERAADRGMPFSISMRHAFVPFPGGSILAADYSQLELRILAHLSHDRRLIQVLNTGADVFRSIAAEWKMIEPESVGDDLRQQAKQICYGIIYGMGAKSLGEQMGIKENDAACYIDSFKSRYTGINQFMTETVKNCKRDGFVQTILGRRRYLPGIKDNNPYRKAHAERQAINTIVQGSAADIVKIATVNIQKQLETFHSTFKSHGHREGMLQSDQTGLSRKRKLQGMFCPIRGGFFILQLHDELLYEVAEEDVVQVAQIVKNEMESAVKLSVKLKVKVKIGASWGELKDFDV
The experiment in a line: Polθ Polymerase Domain Kinact/KI Assay (PicoGreen). The format is biochemical. The conditions noted are these: 0.8 nM Polθ, 100 nM DNA substrate, kobs vs [I] fit for 2-step covalent inhibitor. Summed up:
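Time-dependent inhibition was followed by quenching reactions with EDTA at points up to 60 min, then staining product DNA with PicoGreen fluorescence. Reactions held 0.8 nM E. coli-expressed Polθ, 100 nM primed DNA substrate and […] at pH 7.5, 1% DMSO. kobs versus inhibitor concentration gave Kinact and KI.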
Turning to `C=CC(=O)N1CC(N2CCN(CCN3C[C@H]4CC(=O)N(c5cc(C(F)(F)F)cc(C)n5)[C@@H]4C(=O)N(C)c4cccc(Cl)c43)CC2)C1` [Example 12, (3aR,11aS)-5-(2-(4-(1-acryloylazetidin-3-yl)piperazin-1-yl)ethyl)-6-chloro-10-methyl-1-(6-methyl-4-(trifluoromethyl)pyridin-2-yl)-1,3a,4,5,10,11a-hexahydro-2H-benzo[b]pyrrolo[2,3-f][1,4]diazocine-2,11(3H)-dione], the Kinact/Kl turned out to be 1.71e+06 M⁻¹ s⁻¹.

On to `C#CC(=O)N1Cc2nc(CN3C[C@H]4CC(=O)N(c5cc(C(F)(F)F)cc(C)n5)[C@@H]4C(=O)N(C)c4cccc(Cl)c43)cn2C[C@@H]1C` (racemic) [Example 172a, (3aR,11aS)-6-chloro-10-meth-yl-1-(6-methyl-4-(trifluorometh-yl)pyridin-2-yl)-5-(((S/R)-6-meth-yl-7-propioloyl-5,6,7,8-tetra-hydroimidazo [1,2-a]pyrazin-2-yl)methyl)-1,3a, 4,5,10,11a-hexa-hydro-2H-benzo [b]pyrrolo[2,3-f] [1,4]diazocine-2,11(3H)-dione], for which the Kinact/Kl came to 900000 M⁻¹ s⁻¹.

As to `C=CC(=O)N1CC2(CN(CCN3C[C@H]4CC(=O)N(c5cc(C(F)(F)F)cc(C)n5)[C@@H]4C(=O)N(C)c4cccc(F)c43)CCN2)C1` [Example 30, (3aR,11aS)-5-(2-(2-acryloyl-2,5,8-triazaspiro[3.5]nonan-8-yl)ethyl)-6-fluoro-10-methyl-1-(6-methyl-4-(trifluoromethyl)pyridin-2-yl)-1,3a,4,5,10,11a-hexahydro-2H-benzo[b]pyrrolo[2,3-f][1,4]diazocine-2,11(3H)-dione], the Kinact/Kl was 690000 M⁻¹ s⁻¹.

`C=CC(=O)N1Cc2nc(CN3C[C@H]4CC(=O)N(c5cc(C(F)(F)F)cc(C)n5)[C@@H]4C(=O)N(C)c4cccc(Cl)c43)cn2CC1C` (single isomer, unassigned) [Example 143a] showed a Kinact/Kl of 1e+06 M⁻¹ s⁻¹.

`C=CC(=O)N1CC2CN(CCN3C[C@H]4CC(=O)N(c5cc(C(F)(F)F)cc(C)n5)[C@@H]4C(=O)N(C)c4cccc(F)c43)CCN2C[C@@H]1C` (single isomer, unassigned) [Example 10]: the Kinact/Kl amounted to 210000 M⁻¹ s⁻¹.

`C=CC(=O)N1CC(=O)N2CCN(CCN3C[C@H]4CC(=O)N(c5cc(C(F)(F)F)cc(C)n5)[C@@H]4C(=O)N(C)c4cccc(F)c43)CC2C1` (mixture of isomers) [Example 62a, (3aR,11aS)-5-(2-((R/S)-8-acryloyl-6-oxooctahydro-2H-pyrazino[1,2-a]pyrazin-2-yl)ethyl)-6-fluoro-10-methyl-1-(6-methyl-4-(trifluoromethyl)pyridin-2-yl)-1,3a,4,5,10,11a-hexahydro-2H-benzo[b]pyrrolo[2,3-f][1,4]diazocine-2,11(3H)-dione] yielded a Kinact/Kl of 3.31e+06 M⁻¹ s⁻¹.

The compound `C#CC(=O)N1CCN(CCN2C[C@H]3CC(=O)N(c4cc(C(F)(F)F)cc(C)n4)[C@@H]3C(=O)N(C)c3cccc(C)c32)CC1` [Example 264, (3aR,11aS)-6,10-dimethyl-1-(6-methyl-4-(trifluoromethyl)pyridin-2-yl)-5-(2-(4-propioloylpiperazin-1-yl)ethyl)-1,3a,4,5,10,11a-hexahydro-2H-benzo[b]pyrrolo[2,3-f][1,4]diazocine-2,11(3H)-dione] had a Kinact/Kl of 1.25e+06 M⁻¹ s⁻¹.

`C=CC(=O)N1CC2(CN(CCN3C[C@H]4CC(=O)N(c5cc(C(F)(F)F)cc(C)n5)[C@@H]4C(=O)N(C)c4cccc(F)c43)Cc3nccn32)C1` [Example 105, (3aR,11aS)-5-(2-(1-acryloyl-6′H-spiro[azetidine-3,5′-imidazo[1,2-a]pyrazin]-7′(8′H)-yl)ethyl)-6-fluoro-10-methyl-1-(6-methyl-4-(trifluoromethyl)pyridin-2-yl)-1,3a,4,5,10,11a-hexahydro-2H-benzo[b]pyrrolo[2,3-f][1,4]diazocine-2,11(3H)-dione] yielded a Kinact/Kl of 1.04e+06 M⁻¹ s⁻¹.

`C=CC(=O)N1CCC[C@H]1c1ccc(CN2C[C@H]3CC(=O)N(c4cc(C(F)(F)F)cc(C)n4)[C@@H]3C(=O)N(C)c3cccc(F)c32)cc1` (racemic) [Example 141b, (3aR,11aS)-5-(4-((S/R)-1-acryloylpyrrolidin-2-yl)benzyl)-6-fluoro-10-methyl-1-(6-methyl-4-(trifluoromethyl)pyridin-2-yl)-1,3a,4,5,10,11a-hexahydro-2H-benzo[b]pyrrolo[2,3-f][1,4]diazocine-2,11(3H)-dione]: the Kinact/Kl was 100000 M⁻¹ s⁻¹.

Regarding `C=CC(=O)N1Cc2nc(CN3C[C@H]4CC(=O)N(c5cc(C(F)(F)F)cc(C)n5)[C@@H]4C(=O)N(C)c4cccc(C)c43)n(CC)c2C1` [Example 314, (3aR,11aS)-5-((5-acryloyl-1-ethyl-1,4,5,6-tetrahydro-pyrrolo[3,4-d]imid-azol-2-yl)methyl)-6,10-dimethyl-1-(6-methyl-4-(trifluoro-methyl)pyridin-2-yl)-1,3a,4,5,10,11a-hexahydro-2H-benzo[b]pyrrolo [2,3-f][1,4]diazo-cine-2,11(3H)-dione], the Kinact/Kl came to 1.74e+06 M⁻¹ s⁻¹.

As for `C=CC(=O)N1CCn2nc(CN3C[C@H]4CC(=O)N(c5cc(C(F)(F)F)cc(C)n5)[C@@H]4C(=O)N(C)c4cccc(C)c43)nc2C1` [Example 202, (3aR,11aS)-5-((7-acryloyl-5,6,7,8-tetrahydro-[1,2,4]triazolo [1,5-a]pyrazin-2-yl)methyl)-6,10-dimethyl-1-(6-methyl-4-(trifluoromethyl)pyridin-2-yl)-1,3a,4,5,10,11a-hexahydro-2H-benzo[b]pyrrolo [2,3-f][1,4]diazocine-2,11(3H)-dione], the Kinact/Kl stood at 5.56e+06 M⁻¹ s⁻¹.

`C=CC(=O)N1Cc2cc(CN3C[C@H]4CC(=O)N(c5cc(C(F)(F)F)cc(C)n5)[C@@H]4C(=O)N(C)c4cccc(Cl)c43)cnc2C1COC` (mixture of isomers) [Example 236, (3aR,11aS)-5-(((S/R)-6-acryloyl-7-(methoxymethyl)-6,7-dihydro-5H-pyrrolo[3,4-b]pyridin-3-yl)methyl)-6-chloro-10-methyl-1-(6-methyl-4-(trifluoromethyl)pyridin-2-yl)-1,3a,4,5,10,11a-hexahydro-2H-benzo[b]pyrrolo[2,3-f][1,4]diazocine-2,11(3H)-dione]: the Kinact/Kl was determined as 1.24e+06 M⁻¹ s⁻¹.

As to `C=CC(=O)N1CC[C@H](NCCN2C[C@H]3CC(=O)N(c4cc(C(F)(F)F)cc(C)n4)[C@@H]3C(=O)N(C)c3cccc(Cl)c32)[C@H](F)C1` [Example 66, (3aR,11aS)-5-(2-(((3R,4S)-1-acryloyl-3-fluoropiperidin-4-yl)amino)ethyl)-6-chloro-10-methyl-1-(6-methyl-4-(trifluoromethyl)pyridin-2-yl)-1,3a,4,5,10,11a-hexahydro-2H-benzo[b]pyrrolo[2,3-f][1,4]diazocine-2,11(3H)-dione], the Kinact/Kl amounted to 2.11e+06 M⁻¹ s⁻¹.

The compound `C=CC(=O)N1CCC(N2CCC(CN3C[C@H]4CC(=O)N(c5cc(C(F)(F)F)cc(C)n5)[C@@H]4C(=O)N(C)c4cccc(C)c43)CC2)C1` (mixture of isomers) [Example 95b, (3aR,11aS)-5-((1-((R/S)-1-acryloylpyrrolidin-3-yl)piperidin-4-yl)methyl)-6,10-dimethyl-1-(6-methyl-4-(trifluoromethyl)pyridin-2-yl)-1,3a,4,5,10,11a-hexahydro-2H-benzo[b]pyrrolo[2,3-f][1,4]diazocine-2,11(3H)-dione] returned a Kinact/Kl of 2.5e+06 M⁻¹ s⁻¹.
